Measured values published in US20220257622A1, “COMPOSITION FOR MAINTAINING LACTOBACILLUS DOMINANCE” (Kimberly-Clark Worldwide, Inc., priority 2015, published 2022).

test system: L. crispatus and E. coli; test: Therapeutic effect protocol: L. crispatus / E. coli co-culture in LAPT-g medium with carbon source; format: cell-based; conditions: therapeutic agent (carbon source) 1 wt/vol %; co-culture incubated anaerobically at 37° C.; measured 36 hours after inoculation
Procedure: Colonies of L. crispatus and E. coli were prepared as follows. A colony of L. crispatus was transferred to 7 ml MRS broth and incubated anaerobically (using BD GasPak EZ anaerobe container system with indicator) at 37° C. without shaking for 18-20 hours. A colony of E. coli was transferred to 5m1 TSB broth and incubated aerobically (shaking at 100 rpm) at 37° C. for 18-20 hours.
Colonies were then inoculated as follows. Bacterial cultures were gently vortexed and 1 mL of each culture was transferred to a corresponding 2.0 mL micro-centrifuge tube and then centrifuged for two minutes at 14,500 rpm. The cultural supernatant was removed and the cell pellet was re-suspended in 1 mL of 0.95% (wt/vol %) saline. The re-suspended colony was then centrifuged for two minutes at 14,500 rpms and the supernatant was removed. For L. crispatus, the pellet was re-suspended in 1 mL of 0.95% saline to achieve ˜10^7 -10^8 cfu/mL. For E. coli the pellet was re-suspended in 1 mL of 0.95% saline to achieve ˜10^8-10^9 cfu/mL.
Media were prepared as follows.
All of the ingredients in Table 1 were combined and the pH was adjusted to 6.5. The media were then autoclaved for 20 minutes at 125° C. To evaluate the effect of various saccharides and organic acids (noted as carbon sources below), the following samples were prepared:
Five milliliters (5 mL) of each medium was transferred to a test tube in duplicates for subsequent inoculation. A master mixture of L. crispatus and E. coli, prepared as described above, was prepared in 1,000:1 ratio. Each (5 ml) test tube was inoculated with the master mixture to give 10^5-10^6 total CFU L. crispatus and 100-1,000 total CFU E. coli per tube.
To establish a negative control, one tube was vortexed and 100 μL was removed to determine the initial cell concentrations by serial dilutions and plating (2 plates per dilution). L. crispatus is selected on MRS agar plates incubated anaerobically at 37° C. for two days. E. coli is selected on TSA plates incubated aerobically at 37° C. for one day. The co-cultures were incubated in an anaerobic container with BD GasPaks at 37° C. for 36 hours.
The effect of the carbon source on the ratio of L. crispatus to E. coli was measured 36 hours after inoculation. The co-culture tube was vortexed and 100 μL was removed to determine the final cell concentrations by serial dilutions and plating (2 plates per dilution). L. crispatus is selected on MRS agar plates incubated anaerobically at 37° C. for two days. E. coli is selected on TSA plates incubated aerobically at 37° C. for one day.
The therapeutic effect of the formulation was then measured using the assay described above in the Test Methods section above. The therapeutic effect is summarized below as the ratio of L. crispatus to E. coli.

| Compound | L. crispatus/ E. coli ratio |
| --- | --- |
| OC[C@H]1O[C@@](CO)(OC[C@@]2(O[C@H]3O[C@H](CO)[C@@H](O)[C@H](O)[C@H]3O)O[C@H](CO)[C@@H](O)[C@@H]2O)[C@@H](O)[C@@H]1O [Sample 1, 1-Kestose] | 640 |
| O=CC[C@H](O)[C@H](O)CO [Sample 2, 2-Deoxy-D-Ribose] | 161 |
| OC[C@H]1O[C@@](CO)(O[C@H]2O[C@H](CO)[C@@H](O[C@H]3O[C@H](CO)[C@@H](O)[C@H](O)[C@H]3O)[C@H](O)[C@H]2O)[C@@H](O)[C@@H]1O [Sample 3, Erlose] | 32.1 |
| OC[C@@H](O)[C@@H](O[C@H]1O[C@H](CO)[C@@H](O)[C@H](O)[C@H]1O)[C@H](O)[C@@H](O)CO [Sample 4, Maltitol] | 202 |
| Maltotriose [Sample 5] | 535 |
| Palatinose [Sample 6] | 600 |
